In paper PMC8875489, “Pharmaceutical and Safety Profile Evaluation of Novel Selenocompounds with Noteworthy Anticancer Activity” (Pharmaceutics, 2022):
Like-named read-outs stand apart in the source and are kept apart here.

Experiments:
[1] = system: Salmonella Typhimurium TA100 strain; conditions: for Fold Increase over Baseline / MI (mutagenic index) / B (binomial B value): TA100; for Fold Increase over Baseline: alert ≥ 2.0; for MI (mutagenic index): mutagenic if MI ≥ 2; for B (binomial B value): threshold ≥ 0.99
Experimental: Safety profiles were evaluated using an in vitro microbiological method adapted to the microplate Ames test (384-well microtitration plate), which applies Salmonella enterica serovar Typhimurium bacterial strains (the gold standard in mutagenicity research). The experiment was performed according to a previously described protocol, which is provided in the Supplementary Materials. Briefly, the TA 100 strain (deprived of the ability to synthesize the histidine) was incubated with each tested compound in an exposure medium containing a limited amount of histidine. The reversion events were counted both manually and by means of a microplate reader. Each fold increase bigger than two times the baseline level (≥2.0-fold) was considered to indicate a mutagen alert. The experiments and data analyses were prepared according to the procedure that was previously described by Flückiger-Isler et al.. The assay was performed in triplicate. The positive control selected for the mutagenicity assays was NQNO, which causes genome point mutations; specifically, it promotes G:C → A:T transitions in the Salmonella Typhimurium TA-100 strain and other bacteria such as Vibrio harveyi and Escherichia coli.
In the next step of the studies, the in vitro safety profiles of the tested selenocompounds were evaluated. All compounds were tested with the 384-well plate microfluctuation Ames test. The mutagenic index (MI) was used as the measure of mutagenicity.
1.5. Safety profile evaluation - Ames microplate mutagenicity assay
Safety profile was evaluated by the means of in vitro microbiological methods – adapted to microplate Ames test, which applies Salmonella enterica serovar Typhimurium bacterial strains (the gold standard in mutagenicity research).
1.5.1. Compounds preparation
To evaluate the impact of tested compounds and of references on Salmonella enterica serovar Typhimurium (onwards Salmonella Typhimurium) TA-100 strain growth by means of the Ames test, the compounds or the reference were dissolved in the pure DMSO, to obtain the corresponding 10 mM stock solutions. Working solutions for tested compounds (25 μM and 250 μM concentrations) were prepared before the assay in DMSO.
1.5.2. Microplate Ames mutagenicity assay protocol
Prior to the experiment, Salmonella Typhimurium was cultured overnight (NB-2 liq-uid medium in the presence of 25 μg/mL ampicillin). At the day of the experiment, fresh dilutions of the tested compounds (25 μM and 250 μM), reference compound (methylse-leninic acid) and standard mutagen (4-nitroquinoline-N-oxide at 2.5 μM and 12.5 μM) in DMSO were prepared. The positive control selected for the mutagenicity assays was NQNO, which causes point mutations at the genome. Specifically, it promotes G:C → A:T transitions in Salmonella Typhimurium TA-100 strain and in the other bacteria such as Vib-rio harveyi and Escherichia coli.
The mutagenic potential of the tested derivatives was evaluated by the incubation of the abovementioned bacteria (deprived of the ability to synthesize the histidine) with spe-cific concentrations of the tested compounds (for 90 min in the exposure medium), con-taining a limited amount of histidine (enough to provide approximately 2-3 cell divisions).
The occurrence of reversion events to histidine prototrophy was observed through the bacterial growth in the indicator medium without histidine after 48 h of incubation in temperature of 37° C [45]. The final compound and the mutagenic agent concentrations in each single well of a 384 well plate were 1 μM and 10 μM for the compounds; and 0.1 μM and 0.5 μM for the mutagen. Lastly, both a manual count and a microplate reader were used to obtain the results. The medium control baseline (MCB) was estimated as the mean number of revertants in the medium control plus one standard deviation. Each fold in-crease bigger than two times the baseline level ≥ 2.0 was considered as a mutagen alert.

[2] = design: method as in PMID 28245633; conditions: known selenocompounds; cited from earlier work
[3] = Experimental aqueous solubility (UV spectrophotometry of saturated solutions); type: physicochemical; conditions: water (saturated solution), water, thermodynamic from solid
Experimental: Experimental aqueous solubility was determined following a previously described procedure. Briefly, calibration curves were obtained by means of UV spectrometry for each compound, and their respective linear equations were obtained. Afterwards, saturated solutions of each compound were obtained, and they were diluted until the concentration fell within the calibration range, thus enabling the correct concentration interpolation. […] A detailed description of this process can be found in Supplementary Materials.
The aqueous solubility of the tested organic Se compounds was experimentally determined following a previously described procedure. The chosen assay used UV spectrophotometry to estimate the concentration of the saturated solution with known dilutions of the tested compound at room temperature (20° C) after 24 h. The concentrations of the solutions were used to obtain the interpolation of the measured UV absorbance of the saturated solution dilution from the calibration curve drawn using solutions previously prepared in methanol/water mixtures. […]
1.2. Determination of the aqueous solubility
1.2.1. Preparation of the saturated solutions of tested compounds
The saturated solutions (2 mL) of the tested Se-compounds in water were prepared at H2O boiling point in small glass vials. Later, vials were covered to avoid evaporation and all solutions were left 1 day at 20° C, after when every solution was filtered. Finally, the concentration of the Se-compounds was determined through UV spectrophotometric measurements. To estimate correctly the concentration, calibration curves with known concentrations were prepared, and the saturated solutions were diluted till reaching a point within the range of the respective calibration curve.
1.2.2. Preparation of the calibration curve stock solutions for UV spectrometry The stock solutions of 10 selenoesters (EDA-26, EDA-71, EDA-73, EDA-74, EDA-93, […]
were prepared in methanol (99% purity) at a 1 g/L concentration. Additionally, calibration solutions in the range from 0.0005 to 0.02 [g/L] were prepared for each Se-compound and their UV absorbance was determined to draw the corresponding calibration curve.
1.2.3. Sample preparation of saturated filtrates for UV spectrometry
The 100-fold diluted solutions of the saturated filtrates of the Se-compounds were prepared in the anhydrous methanol (99% purity), by addition of 70 μL of the correspond-ing methanol stock solution over anhydrous methanol till filling a 7 mL final volume. Af-terwards, the absorption of abovementioned solutions was determined. Finally, the solu-tions were diluted with 99% methanol from 1 to 160 times, in function of the compound.
The aim of this procedure was to determine the concentration of the Se-compounds […]
through the controlled dilution of the solution with unknown concentration till its UV absorbance fell within the range of the calibration solutions.
1.2.4. Solubility estimation
For each compound, the calibration curve was calculated through the UV absorbance measurements and the linear equation of the linear part of the curve was calculated. The absorbance of the dilution was then interpolated in this range, finding its concentration.
To determine the solubility, this concentration was multiplied by the dilution factor, which was specific for each derivative. This action enabled the estimation of the in vitro solubility of the tested derivatives in saturated solutions. All the solubility values were the average value obtained from the 3 independent measurements.
(§1) 1.3. PAMPA test: membrane permeability evaluation.
(§2) The passive transport and the membrane absorption of 5 selected selenocompounds (EDA-58, EDA-71, EDA-119, EDA-122, EDA-A6) were evaluated in the in vitro Parallel Artificial Membrane Permeability Assay (PAMPA). The protocol of the permeability assay was similar to the ones previously described.
1.3.1. Stock solutions and sample preparation for PAMPA test […]

[4] = PAMPA membrane permeability test (capillary electrophoresis); type: in vitro ADME; conditions: for Papp at 5 h, 50 µM: 50 μM in PBS pH 7.4, 5 h, room temperature, read-out: In Vitro Permeability
Experimental: The passive transport and membrane absorption of 5 selected selenocompounds (EDA-58, EDA-71, EDA-119, EDA-122, and EDA-A6) were evaluated with the in vitro parallel artificial membrane permeability assay (PAMPA). This PAMPA assay could provide better predictability and membrane permeability correlations compared to the data obtained for human absorption in the Caco-2 cell line. The Precoated PAMPA Plate System Gentest™ (Corning, Bradford, MA, USA) was used to perform the permeability assay for the 5 selected Se compounds. The protocol of the permeability assay was similar to the previously described ones and is detailed in the Supplementary Materials.
Five selenocompounds (EDA-58, EDA-71, EDA-119, EDA-122, and EDA-A6) were evaluated with the PAMPA in vitro assay using the CE technique.
[formula] Scheme 1 Calculation of the in vitro permeability (cm/s). A (filter area) cm^2 = 0.3; VD (donor well volume) mL = 0.3; VA (acceptor well volume) mL = 0.2; t (incubation time) seconds = 18,000; CA(t) (compound concentration in acceptor well at time t); CD(t) (compound concentration in donor well at time t). […]
as §1, §2
1.3.1. Stock solutions and sample preparation for PAMPA test
Working solutions of the tested compounds at the concentration of the 50 μM in the phosphate saline buffer (PBS, pH 7.4) were prepared from the stocks in the pure dimethyl sulfoxide (DMSO) and stored at -20° C. Moreover, to draw the precise calibration curves for each tested (EDA-58, EDA-71, EDA-119, EDA-122, EDA-A6) and reference com- […]
The Precoated PAMPA Plate System Gentest™ (Corning, Bradford, MA, USA) was used to perform permeability assay for the 5 selected Se-compounds. The essential part of […]
solvents. PAMPA Plate System was brought to room temperature 30 min before use.
The 96-well filter plate precoated with lipids was used as a permeation acceptor, whereas the 96-well receiver plate acted as the permeation donor plate. Therefore, the compound solutions were added to the wells (300 μL/well) of the receiver plate and PBS was added to wells (200 μL/well) of the precoated filter plate.
Then, the filter plate was coupled with the receiver plate and both were incubated at room temperature for five hours without agitation. […] Fi-nally, the permeability coefficients (Pe, [cm/s]) of the tested compounds were estimated using the formula provided by the PAMPA Plate System manufacturer.
1.3.3. Capillary electrophoresis (CE) analytical method […]
were calculated in both the donor and acceptor compartments using the capillary electro-

Compound	Fold Increase over Baseline ([1]; 1 µM)	MI (mutagenic index) ([1]; 1 µM)	B (binomial B value) ([1]; 1 µM)	Fold Increase over Baseline ([1]; 10 µM)	MI (mutagenic index) ([1]; 10 µM)	B (binomial B value) ([1]; 10 µM)	other results
COC(=O)C[Se]C(=O)Cc1ccccc1 [EDA-56, methyl 2-((2-phenylacetyl)selanyl)acetate]	0.93	1.46	0.88	0.90	0.85	0.75	
N#C[SeH] [anionic selenocyanate, selenocyanate]							permeability [2]: 3.8%
C[Se+](C)C [cationic trimethylselenonium, trimethylselenonium]							permeability [2]: 3.0%
C[Se](=O)O [MetSeAc, methylseleninic acid, reference compound]	0.75	0.90	0.37	0.74	0.96	0.47	
C[Se]C1O[C@H](CO)[C@H](O)[C@H](O)[C@H]1NC(C)=O (stereo partly drawn) [Se-methylseleno-N-acetylgalactosamine]							permeability [2]: 2.9%
NC(=O)C[Se]C(=O)c1ccccc1 [EDA-117, Se-carbamoylmethyl benzoselenoate]	0.49	0.66	0.36	0.42	0.57	0.18	solubility at 24 h ([3]; 20 °C, logSm calculated based on solubility Sm (mol/L), read-out: Experimental Aqueous Solubility logSm (converted)): 4.27 mM; solubility at 24 h ([3]; room temperature (20° C), after 24 h, average of 3, read-out: Experimental Aqueous Solubility): 1.03 mg/mL
COC(=O)C[Se]C(=O)c1ccccc1 [EDA-53, methyl 2-(benzoylselanyl)acetate]	1.10	1.82	1.00	1.04	1.72	0.98	mutagenicity conclusion in Ames test ([1]; TA100, 1 and 10 µM): non-mutagenic
Cn1c(=O)c2c(ncn2C)n(C)c1=O [Caffeine, caffeine, reference compound]							Papp at 5 h, 50 µM [4]: 34.2 nm/s; % Perm. (percentage that crossed from the donor well to the acceptor well) ([4]; 5 h): 6.05%
COc1cccc2c1C(=O)c1c(O)c3c(c(O)c1C2=O)C[C@@](O)(C(=O)CO)C[C@@H]3O[C@H]1C[C@H](N)[C@H](O)[C@H](C)O1 [DOXO, doxorubicin, reference compound]	1.31	1.64	1.00	0.77	0.95	0.46	
COC(=O)C[Se]C(=O)c1ccccc1Cl [EDA-46, methyl 2-((2-chlorobenzoyl)selanyl)acetate]	1.65	1.56	1.00	1.00	0.94	0.88	
CCn1cc(C(=O)O)c(=O)c2cc(F)c(N3CCNCC3)cc21 [Norfloxacin, norfloxacin, reference compound]							Papp at 5 h, 50 µM [4]: 0.949 nm/s
